Assay results: patent US5792882A, “Phenoxyphenyl cyclopentenyl hydroxyureas” (Pfizer Inc., priority 1993, dated 1998)

What was measured:
[1] = tested on: platelet activating factor (PAF) induced lethality; experiment: PAF induced lethality in mice, test compound administered orally; assay type: in vivo, ICR mice (male); conditions: Mus musculus, oral administration 45 min prior to PAF injection (12 μg/Kg i.v.), mortality 1 hr after PAF
Experimental: 2) In vivo system measuring effects of test compound administered orally against platelet activating factor (PAF) induced lethality in mice
The in vivo potency after oral administration of test compounds to ICR mice (male) was determined using the PAF lethality assay in a similar manner as that described in the following articles: J. M. Young, P. J. Maloney, S. N. Jubb, and J. S. Clark, Prostaglandins, 30, 545 (1985); M. Criscuoli and A. Subissi, Br. J. Pharmac., 90, 203 (1987); and H. Tsunoda, S. Abe, Y. Sakuma, S. Katayama and K. Katayama, Prostaglandins Leukotrienes and Essential Fatty Acids, 39, 291 (1990). PAF was dissolved at a concentration of 1.2 μg/ml in 0.05 mg/ml propranolol-saline containing 0.25% bovine serum albumin (BSA) and injected intravenously into mice at a dose of 12 μg/Kg. Mortality was determined 1 hr after PAF injection. To investigate the effect of 5-LO inhibitors, compounds were dissolved in 5% tween 80, 5% EtOH-saline and administered orally (0.1 ml/10 g) 45 min prior to PAF injection. Linear regression was used to estimate ED50 values.

5-lipoxygenase (LO) = target: T1, 5-lipoxygenase (LO) (Homo sapiens, UniProt P09917); experiment: In vitro assay using heparinized human whole blood (HWB); assay type: cell-based; conditions: calcium ionophore stimulated, 10 min preincubation at 37° C., read-out: IC50, inhibition of 5-lipoxygenase metabolism of arachidonic acid
T1 construct: Aliquots of heparinized human whole blood (1 ml) from healthy donors; endogenous in cells; host or cells: heparinized human whole blood from healthy donors
T1 sequence (P09917 1-674): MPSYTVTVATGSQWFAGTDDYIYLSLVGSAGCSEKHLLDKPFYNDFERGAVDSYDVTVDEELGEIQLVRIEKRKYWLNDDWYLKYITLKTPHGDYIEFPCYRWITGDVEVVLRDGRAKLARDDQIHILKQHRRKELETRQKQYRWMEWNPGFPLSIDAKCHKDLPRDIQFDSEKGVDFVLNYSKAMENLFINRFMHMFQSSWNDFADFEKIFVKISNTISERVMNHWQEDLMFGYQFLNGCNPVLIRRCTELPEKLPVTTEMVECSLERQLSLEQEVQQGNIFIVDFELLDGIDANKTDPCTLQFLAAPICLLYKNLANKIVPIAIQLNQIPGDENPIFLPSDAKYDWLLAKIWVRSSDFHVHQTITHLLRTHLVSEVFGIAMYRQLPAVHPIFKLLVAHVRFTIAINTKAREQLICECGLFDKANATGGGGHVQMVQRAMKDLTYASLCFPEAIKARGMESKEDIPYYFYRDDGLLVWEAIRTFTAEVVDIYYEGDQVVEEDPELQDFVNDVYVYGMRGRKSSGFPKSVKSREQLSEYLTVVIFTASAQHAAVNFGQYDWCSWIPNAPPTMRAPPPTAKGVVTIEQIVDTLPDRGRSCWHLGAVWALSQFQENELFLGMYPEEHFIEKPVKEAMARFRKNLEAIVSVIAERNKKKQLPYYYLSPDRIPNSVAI
Experimental: 1) In vitro assay using heparinized human whole blood (HWB)
Aliquots of heparinized human whole blood (1 ml) from healthy donors were preincubated with drugs dissolved in dimethyl sulfoxide (final concentration, 0.1%) for 10 min at 37° C., then calcium ionophore […] (60 μM) and Heparapid (2.5%, Sekisui Chemical Co. LTD., Japan) were added and incubations were continued for further 30 min. Reactions were terminated by rapid cooling in an ice bath. Blood-clots induced by Heparapid were removed by centrifugation. Acetonitrile (ACN, 1.5 ml) and PGB2 (200 ng, as internal standard) were added to supernatants. Samples were mixed by Voltex mixer and precipitated proteins were removed by centrifugation. Supernatants were diluted to 15% ACN with water and were loaded onto prewashed Sep-Pak C18 cartridge (Waters Associates, Milford, Miss., USA) and arachidonate metabolites were eluted with 4 ml of 70% methanol. Methanolic extract was evaporated and the residue was then reconstituted in 250 μl of 67% ACN.
ACN reconstituents (100 μl) were injected onto a reversed phase C18 column (Wakosil SC18, 4.6×150 mm, Wako Pure Chemical Industries LTD, Japan). Column temperature was 40° C. HPLC analysis was performed by Hewlett Packard model 1090M HPLC system. The chromatographic was achieved by gradient elution using two different mobile phase ( mobile phase A consisted of 10% ACN, 0.1% trifluoroacetic acid and 0.05% triethylamine; mobile phase B consisted of 80% ACN, 0.1% trifluoroacetic acid and 0.05% triethylamine). Each mobile phase was continuously sparged with helium. The HPLC gradient was programmed as follows (where A+B=100): from 0 to 9.7 min, a linear gradient from 35 to 100% of […] with flow rate of 1 ml/min. Peaks of eluting products were quantitated by UV absorbance (LTB4 and PGB2 at 275 nm; HHT and 5-HETE at 235 nm, respectively) and were corrected by PGB2 recovery. Linear regression was used to estimate IC50 values. […]

Row | Structure (SMILES) | ED50 [1] | IC50 (5-lipoxygenase (LO))
1 | NC(=O)N(O)C1C=C(c2cccc(Oc3ccccc3)c2)CC1 (single isomer, unassigned; (+)) [Example 2, (+)-N-[3-(3-Phenoxyphenyl)-2-cyclopenten-1-yl]-N-hydroxyurea] | 1 to 10 mg/kg | ~0.5 µM
2 | NC(=O)N(O)C1C=C(c2cccc(Oc3ccc(F)cc3)c2)CC1 (single isomer, unassigned; (+)) [Example 1, (+)-N-[3-[3-(4-Fluorophenoxy)phenyl]-2-cyclopenten-1-yl]-N-hydroxyurea] | 1 to 10 mg/kg | ~0.5 µM
3 | NC(=O)N(O)C1C=C(c2cccc(Oc3ccc(Cl)cc3)c2)CC1 (single isomer, unassigned; (+)) [Example 3, (+)-N-[3-[3-(4-Chlorophenoxy)phenyl]-2-cyclopenten-1-yl]-N-hydroxyurea] | 1 to 10 mg/kg | ~0.5 µM
